From article PMC7241536, “Design, synthesis and in vitro antiproliferative activity of new thiazolidinedione-1,3,4-oxadiazole hybrids as thymidylate synthase inhibitors” (Journal of Enzyme Inhibition and Medicinal Chemistry, 2020) come the findings set out here.

One data set has as its system MCF-7 (breast cancer). Briefly: MTT cytotoxicity assay, MCF-7. It is filed as cell-based, human. The following applies: for IC50: MTT, 72 h, breast cancer cell line MCF-7, read-out: IC50 against MCF-7; for folds activity of 5-FU against MCF-7: relative to 5-fluorouracil. The procedure:
(§1) The methods are provided in Supplementary material.
(§2) The newly synthesised compounds 7–21 were tested for their cytotoxicity against human cancer cell line viz. breast and colorectal using MTT assay.
(§3) Two human cancer cell lines, MCF-7 and HCT-116 were cultured in Dulbecco’s Modified Eagles Medium (DMEM) high glucose medium which was supplemented with 10% fetal bovine serum (FBS), 10,000 units/mL penicillin/streptomycin (Pen/Strep) and 1% glutamine). The above cell lines were cultured in 75 cm2 flasks and maintained at 37 °C in an incubator humidified with 5% CO2. The cell culture was performed using aseptic techniques in a Class II […]
(§4) Breast MCF-7 and colorectal HCT-116 cancer cells were added at (1 × 10^5 cells/mL) into a 96 well plate with three replicates and incubated overnight for attachment at 37°C, in 5% CO2 humidified atmosphere. Drug concentrations at 6 serial dilutions (100, 50, 10, 1, 0.5 and 0.1 μM) were added in triplicates and incubated at 37°C, 5% CO2 for 72 h. Drugs were dissolved in 0.1 % DMSO as a vehicle. Untreated cells were used as control. 5-fluorouracil (5-FU) was used as a positive control. Thereafter, each well for each time point was removed and replaced with […] of full medium containing 10% of 3-(4,5- dimethylthiaxolyl-2)-2,5-diphenyltetrazoliumbromide (MTT) (10 mg/mL). Media was removed and 100µl of DMSO was added and cells were incubated for further 5 mins at 37 °C and 5% CO2. Plates were quantified using the SpectraMax M3 plate reader at 570 nm. The percentage inhibition was calculated as 100–[(Mean OD of treated cell × 100)/Mean OD of vehicle treated cells (DMSO)]. All the experiments were repeated at least three independent experiments. […]
(In general: Tetrazolium dyes change colour on reduction, which living cells bring about.)

Data set [1] concerns HCT-116 (colorectal cancer). Briefly: MTT cytotoxicity assay, HCT-116. The note with it: for IC50: MTT, 72 h, colorectal cancer cell line HCT-116, read-out: IC50 against HCT-116; for folds cytotoxicity compared to 5-FU against HCT-116: relative to 5-fluorouracil. It is filed as cell-based, human. On the procedure:
as §1, §2, §3, §4

Data set [2] has as its target thymidylate synthase (TS) (Homo sapiens, UniProt P04818). Briefly: In vitro thymidylate synthase assay (spectrophotometric, 340 nm). The class given is biochemical. The procedure:
TS activity was performed according to the method as described by Wahab and Friedkin[27] with a slight modification according to Santi.[28] (Refer to Supplementary material for the method.) […]
In vitro Thymidylate synthase assay
It involves a mixture containing 2-mercaptoethanol (0.1 M), (6R,S)-tetrahydrofolate (0.0003 M), formaldehyde (0.012 M), MgCl2 (0.02 M), dUMP (0.001 M), TrisHCl (0.04 M), and NaEDTA […]
(0.00075 M). This assay was done spectrophotometrically at 30° C and pH 7.4. The reaction was initiated by the addition of an amount of enzyme giving a change in absorbance at 340 nm of 0.016/min in the absence of inhibitor. The percent inhibition was determined at a minimum of four inhibitor concentrations within 20% of the 50% point. The standard deviations for […]

Where [3] appears, read: 30 °C, pH 7.4, read-out: TS inhibition IC50.

One may read the IC50 as the concentration that gives 50% inhibition. The melting point is the temperature, or range, at which the solid turns liquid.

Where two headings read alike, the source gives them in different places.

Chain of thymidylate synthase (TS) (P04818 whole entry): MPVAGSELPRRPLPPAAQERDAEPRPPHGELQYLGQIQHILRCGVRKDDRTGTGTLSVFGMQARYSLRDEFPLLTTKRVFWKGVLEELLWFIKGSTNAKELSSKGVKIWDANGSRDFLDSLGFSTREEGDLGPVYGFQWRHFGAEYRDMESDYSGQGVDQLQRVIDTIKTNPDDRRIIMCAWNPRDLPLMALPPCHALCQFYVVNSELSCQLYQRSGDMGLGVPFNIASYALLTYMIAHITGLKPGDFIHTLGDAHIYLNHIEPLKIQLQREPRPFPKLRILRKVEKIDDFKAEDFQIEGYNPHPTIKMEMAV

Turning to `O=c1[nH]cc(F)c(=O)[nH]1` [Compound 5-FU, 5-fluorouracil, reference compound], the IC50 with MCF-7 (breast cancer) (Homo sapiens, MCF7, 72 h) is 34.8 µM; in data set [1] (Homo sapiens, HCT-116, 72 h), 40.5 µM.

For the molecule `COc1ccc(/C=C2\SC(=O)N(Cc3nnc(-c4ccccc4)o3)C2=O)cc1` [Compound 7, (Z)-5-(4-methoxybenzylidene)-3-((5-phenyl-1,3,4-oxadiazol-2-yl)methyl)thiazolidine-2,4-dione], the IC50 in the data set with MCF-7 (breast cancer) (Homo sapiens, MCF7, 72 h) came out at 53.5 µM; in data set [1] (Homo sapiens, HCT-116, 72 h) it was 57.3 µM.

Take `COc1ccc(/C=C2\SC(=O)N(Cc3nnc(-c4cccc(Cl)c4)o3)C2=O)cc1` [Compound 8, (Z)-5-(4-methoxybenzylidene)-3-((5-(3-chlorophenyl)-1,3,4-oxadiazol-2-yl)methyl)thiazolidine-2,4-dione]: the IC50 in the data set on MCF-7 (breast cancer) (Homo sapiens, MCF7, 72 h) stood at 56 µM; in data set [1] (Homo sapiens, HCT-116, 72 h) it was 56.8 µM.

With `COc1ccc(/C=C2\SC(=O)N(Cc3nnc(-c4ccccc4Cl)o3)C2=O)cc1` [Compound 9, (Z)-5-(4-methoxybenzylidene)-3-((5-(2-chlorophenyl)-1,3,4-oxadiazol-2-yl)methyl)thiazolidine-2,4-dione], the melting point lay within 276 to 277 °C. Besides, the half-inhibitory concentration (IC50) with MCF-7 (breast cancer) (Homo sapiens, MCF7, 72 h) worked out at 7.47 µM. Besides, in the data set with MCF-7 (breast cancer), the 50% inhibitory concentration (IC50) turned out to be 7.74 µM and the “folds activity of 5-FU against MCF-7” value is 4.5 folds. Further, the half-inhibitory concentration (IC50) in data set [1] (Homo sapiens, HCT-116, 72 h) is 12.8 µM. Besides, in data set [1], the “folds cytotoxicity compared to 5-FU against HCT-116” value came to 3.1 folds. Further, the IC50 in data set [2] (setting [3]) turned out to be 1.67 µM.

For the molecule `COc1ccc(/C=C2\SC(=O)N(Cc3nnc(-c4ccc(Br)cc4)o3)C2=O)cc1` [Compound 10, (Z)-5-(4-methoxybenzylidene)-3-((5-(4-bromophenyl)-1,3,4-oxadiazol-2-yl)methyl)thiazolidine-2,4-dione], the 50% inhibitory concentration (IC50) in the data set on MCF-7 (breast cancer) (Homo sapiens, MCF7, 72 h) came out at 7.87 µM; in data set [1] (Homo sapiens, HCT-116, 72 h), 16.1 µM; in data set [2] (setting [3]) it was 2.21 µM. The “folds activity of 5-FU against MCF-7” value with MCF-7 (breast cancer) was determined as 4.4 folds. Besides, the “folds cytotoxicity compared to 5-FU against HCT-116” value in data set [1] worked out at 2.5 folds.

`COc1ccc(/C=C2\SC(=O)N(Cc3nnc(-c4ccc(C)cc4)o3)C2=O)cc1` [Compound 11, (Z)-5-(4-methoxybenzylidene)-3-((5-p-tolyl-1,3,4-oxadiazol-2-yl)methyl)thiazolidine-2,4-dione] yielded a melting point of 197 to 198 °C. Moreover, the IC50 with MCF-7 (breast cancer) (Homo sapiens, MCF7, 72 h) is 58.4 µM. The IC50 in data set [1] (Homo sapiens, HCT-116, 72 h) was found to be 68.1 µM.

For the molecule `COc1ccc(/C=C2\SC(=O)N(Cc3nnc(-c4ccccc4O)o3)C2=O)cc1` [Compound 12, (Z)-5-(4-methoxybenzylidene)-3-((5-(2-hydroxyphenyl)-1,3,4-oxadiazol-2-yl)methyl)thiazol idine-2,4-dione], the IC50 in the data set on MCF-7 (breast cancer) (Homo sapiens, MCF7, 72 h) worked out at 56.3 µM; in data set [1] (Homo sapiens, HCT-116, 72 h), 58.6 µM.

For `COc1ccc(/C=C2\SC(=O)N(Cc3nnc(-c4ccccc4C)o3)C2=O)cc1` [Compound 13, (Z)-5-(4-methoxybenzylidene)-3-((5-o-tolyl-1,3,4-oxadiazol-2-yl)methyl)thiazolidine-2,4-dione], the concentration for half-maximal inhibition (IC50) came out at 56.3 µM in the data set with MCF-7 (breast cancer) (Homo sapiens, MCF7, 72 h) and 58.6 µM in data set [1] (Homo sapiens, HCT-116, 72 h).

Turning to `COc1ccc(/C=C2\SC(=O)N(Cc3nnc(-c4cccc([N+](=O)[O-])c4)o3)C2=O)cc1` [Compound 14, (Z)-5-(4-methoxybenzylidene)-3-((5-(3-nitrophenyl)-1,3,4-oxadiazol-2-yl)methyl)thiazolidine-2,4-dione], the IC50 is 43.4 µM in the data set on MCF-7 (breast cancer) (Homo sapiens, MCF7, 72 h); 42.2 µM in data set [1] (Homo sapiens, HCT-116, 72 h); 42.2 µM in data set [1]; 9.4 µM in data set [2] (setting [3]).

`COc1ccc(/C=C2\SC(=O)N(Cc3nnc(-c4cccc(C)c4)o3)C2=O)cc1` [Compound 15, (Z)-5-(4-methoxybenzylidene)-3-((5-m-tolyl-1,3,4-oxadiazol-2-yl)methyl)thiazolidine-2,4-dione]: the half-maximal inhibitory concentration (IC50) amounted to 47.8 µM in the data set on MCF-7 (breast cancer) (Homo sapiens, MCF7, 72 h); 39.6 µM in data set [1] (Homo sapiens, HCT-116, 72 h); 7.9 µM in data set [2] (setting [3]).

`COc1ccc(/C=C2\SC(=O)N(Cc3nnc(COc4ccccc4)o3)C2=O)cc1` [Compound 16, (Z)-5-(4-methoxybenzylidene)-3-((5-(phenoxymethyl)-1,3,4-oxadiazol-2-yl)methyl)thiazolidine-2,4-dione] yielded a melting point of 152 to 153 °C. Further, the IC50 with MCF-7 (breast cancer) (Homo sapiens, MCF7, 72 h) came out at 58.4 µM. Further, in data set [1] (Homo sapiens, HCT-116, 72 h), the IC50 amounted to 67.1 µM.

In turn, `COc1ccc(/C=C2\SC(=O)N(Cc3nnc(COc4cccc(Cl)c4)o3)C2=O)cc1` [Compound 17, (Z)-3-((5-((3-chlorophenoxy)methyl)-1,3,4-oxadiazol-2-yl)methyl)-5-(4-methoxybenzylidene)thiazolidine-2,4-dione] displayed a melting point of 142 to 143 °C. For the same molecule, in the data set on MCF-7 (breast cancer) (Homo sapiens, MCF7, 72 h), the IC50 amounted to 65.2 µM. Besides, the IC50 in data set [1] (Homo sapiens, HCT-116, 72 h) worked out at 55.5 µM.

As to `COc1ccc(/C=C2\SC(=O)N(Cc3nnc(COc4cccc(Cl)c4Cl)o3)C2=O)cc1` [Compound 18, (Z)-3-((5-((2,3-dichlorophenoxy)methyl)-1,3,4-oxadiazol-2-yl)methyl)-5-(4-methoxybenzylidene)thiazolidine-2,4-dione], the melting point is 209 to 210 °C. In addition, the IC50 with MCF-7 (breast cancer) (Homo sapiens, MCF7, 72 h) is greater than 100 µM. Moreover, the half-inhibitory concentration (IC50) in data set [1] (Homo sapiens, HCT-116, 72 h) was greater than 100 µM.

`COc1ccc(/C=C2\SC(=O)N(Cc3nnc(COc4cccc5ccccc45)o3)C2=O)cc1` [Compound 19, (Z)-5-(4-methoxybenzylidene)-3-((5-((naphthalen-1-yloxy)methyl)-1,3,4-oxadiazol-2-yl)methyl) thiazolidine-2,4-dione] displayed a melting point of 220 to 221 °C. Further, the IC50 in the data set on MCF-7 (breast cancer) (Homo sapiens, MCF7, 72 h) stood at 61.6 µM. Also, the IC50 in data set [1] (Homo sapiens, HCT-116, 72 h) turned out to be 69.5 µM.

`COc1ccc(/C=C2\SC(=O)N(Cc3nnc(COc4ccc5ccccc5c4)o3)C2=O)cc1` [Compound 20, (Z)-5-(4-methoxybenzylidene)-3-((5-((naphthalen-3-yloxy)methyl)-1,3,4-oxadiazol-2-yl)methyl) thiazolidine-2,4-dione] displayed a melting point of 210 to 211 °C. Also, in the data set with MCF-7 (breast cancer) (Homo sapiens, MCF7, 72 h), the 50% inhibitory concentration (IC50) is greater than 100 µM. Also, the IC50 in data set [1] (Homo sapiens, HCT-116, 72 h) was greater than 100 µM.

`COc1ccc(/C=C2\SC(=O)N(Cc3nnc(COc4cccc5cccnc45)o3)C2=O)cc1` [Compound 21, (Z)-5-(4-methoxybenzylidene)-3-((5-((quinolin-8-yloxy)methyl)-1,3,4-oxadiazol-2-yl)methyl) thiazolidine-2,4-dione] came in with a melting point of 161 to 162 °C. The 50% inhibitory concentration (IC50) in the data set on MCF-7 (breast cancer) (Homo sapiens, MCF7, 72 h) turned out to be 62 µM. Further, in data set [1] (Homo sapiens, HCT-116, 72 h), the IC50 was 63.1 µM.

As for `Nc1nc2[nH]cc(CCc3ccc(C(=O)N[C@@H](CCC(=O)O)C(=O)O)cc3)c2c(=O)[nH]1` [PTX, Pemetrexed, reference compound], the half-inhibitory concentration (IC50) in data set [2] was 8.2 µM.
